Laboratory results taken from paper PMC8273893 (Journal of Medicinal Chemistry, 2021).

Experiments:
Plasma stability = assay type: in vitro ADME; conditions: 5 μM, 50% human plasma in PBS, 1 h, 37 °C
[1] = Parallel artificial membrane permeability assay; assay type: in vitro ADME; conditions: 500 μM in donor, 20 h

Row | plasma stability (% remaining) (Plasma stability) | PAMPA (% flux) [1] [% flux] | Compound
1 | 79.1 | 36.1 | O=C(O)c1ccc(NCc2c(-c3c(Cl)cccc3C(F)(F)F)noc2-c2cc[nH]c2)cc1 [Compound 2, 4-(((3-(2-Chloro-6-(trifluoromethyl)phenyl)-5-(1H-pyrrol-3-yl)isoxazol-4-yl)methyl)amino) Benzoic Acid]
2 | 74.2 | 40.9 | O=C(O)c1ccc(OCc2c(-c3c(Cl)cccc3C(F)(F)F)noc2-c2cc[nH]c2)cc1 [Compound 3, 4-((3-(2-Chloro-6-(trifluoromethyl)phenyl)-5-(1H-pyrrol-3-yl)isoxazol-4-yl)methoxy) Benzoic Acid]
3 | 100 | 23.0 | O=C(O)c1ccc(OCc2c(-c3c(Cl)cccc3C(F)(F)F)noc2-c2cn[nH]c2)cc1 [Compound 11, 4-((3-(2-Chloro-6-(trifluoromethyl)phenyl)-5-(1H-pyrazol-4-yl)isoxazol-4-yl)methoxy) Benzoic Acid]
4 | 95.5 | 29.7 | O=C(O)c1ccc(-c2nn(C(=O)c3c(Cl)cccc3C(F)(F)F)c3ccccc23)cc1 [Compound 1, reference compound]
5 | 97.1 | 37.3 | O=C(O)c1ccc(OCc2c(-c3c(Cl)cccc3C(F)(F)F)noc2-c2cc[nH]c2)cc1F [Compound 9, 4-((3-(2-Chloro-6-(trifluoromethyl)phenyl)-5-(1H-pyrrol-3-yl)isoxazol-4-yl)methoxy)-2-fluorobenzoic Acid]
6 | 89.5 | 50.5 | O=C(O)c1ccc(OCc2c(-c3c(Cl)cccc3C(F)(F)F)noc2-c2ccc[nH]2)cc1 [Compound 10, 4-((3-(2-Chloro-6-(trifluoromethyl)phenyl)-5-(1H-pyrrol-2-yl)isoxazol-4-yl)methoxy) Benzoic Acid]
7 | 59.5 | 40.3 | O=C(O)c1ccc(/C=C/c2c(-c3c(Cl)cccc3C(F)(F)F)noc2-c2cc[nH]c2)cc1 [Compound 6, (E)-4-(2-(3-(2-Chloro-6-(trifluoromethyl)phenyl)-5-(1H-pyrrol-3-yl)isoxazol-4-yl)vinyl) Benzoic Acid]
